Calls of active or inactive are those of the source. The rule behind the calls is not given here.
Tests used:
Rattus norvegicus [1] = assay: Antiamnesic activity against scopolamine-induced dementia in Wistar rat assessed as decrease in occurrence of mistakes at 0.5 mg/kg, po; type: functional, organism-based; set-up: dose 0.5 mg/kg
Rattus norvegicus [2] = assay: Antiamnesic activity against scopolamine-induced dementia in Wistar rat assessed as basal latency period to reach shock free zone at 0.5 mg/kg, po; type: functional
Rattus norvegicus [3] = assay: Antiamnesic activity against scopolamine-induced dementia in Wistar rat assessed as latency period to improve memory at 0.5 mg/kg, po; type: functional
Rattus norvegicus [4] = assay: Antiamnesic activity against scopolamine-induced memory loss and learning impairment in Wistar rat assessed as transfer latency period to reach from open arm to closed arm ends measured on day 1 at 0.5 mg/kg, po by elevated plus maze test; type: functional
Rattus norvegicus [5] = assay: Antiamnesic activity against scopolamine-induced memory loss and learning impairment in Wistar rat assessed as transfer latency period to reach from open arm to closed arm ends measured on day 2 at 0.5 mg/kg, po by elevated plus maze test; type: functional
Rattus norvegicus [6] = assay: Antiamnesic activity against scopolamine-induced memory loss and learning impairment in Wistar rat at 0.5 mg/kg, po by Y maze test; type: functional, organism-based; set-up: dose 0.5 mg/kg
Rattus norvegicus [7] = assay: Cholinergic toxicity in po dosed Wistar rat assessed as occurrence of salivation after 1 week; type: organism-based; conditions: in vivo, 168 h
Rattus norvegicus [8] = assay: Cholinergic toxicity in po dosed Wistar rat assessed as occurrence of defecation after 1 week; type: organism-based; conditions: in vivo, 168 h
Rattus norvegicus [9] = assay: Toxicity in po dosed Wistar rat assessed as mortality within 1 week; type: organism-based; conditions: in vivo, 168 h
[10] = target: T1, Muscarinic acetylcholine receptor M1 (Rattus norvegicus, UniProt P08482); assay: Displacement of [3H]QNB from muscarinic M1 receptor in Wistar rat brain cortex after 2 hrs by liquid scintillation counting
T1 sequence (P08482 whole entry): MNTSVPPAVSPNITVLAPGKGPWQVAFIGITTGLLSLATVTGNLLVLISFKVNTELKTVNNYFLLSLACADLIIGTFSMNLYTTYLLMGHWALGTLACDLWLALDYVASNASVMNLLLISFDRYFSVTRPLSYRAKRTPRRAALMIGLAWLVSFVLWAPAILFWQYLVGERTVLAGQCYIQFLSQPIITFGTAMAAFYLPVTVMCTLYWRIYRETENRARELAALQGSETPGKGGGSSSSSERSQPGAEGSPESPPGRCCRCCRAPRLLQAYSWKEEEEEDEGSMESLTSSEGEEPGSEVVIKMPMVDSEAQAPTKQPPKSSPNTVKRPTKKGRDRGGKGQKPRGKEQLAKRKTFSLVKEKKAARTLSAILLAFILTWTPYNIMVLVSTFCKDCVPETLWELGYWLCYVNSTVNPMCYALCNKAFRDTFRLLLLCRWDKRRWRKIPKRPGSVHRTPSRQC

[11] = target: T2, Muscarinic acetylcholine receptor M1 (Rattus norvegicus) (UniProt P08482); assay: Agonist activity at muscarinic M1 receptor in Wistar rat cerebral cortex assessed as [3H]myoinositol (1,4,5)-triphosphate level per gram of protein at 100 uM after 1 hr by liquid scintillation counting; type: functional, tissue-based
T2 sequence (whole entry): T1 sequence (P08482 whole entry)

SMILES	Activity (Rattus norvegicus [1])	Time (Rattus norvegicus [2])	Time (Rattus norvegicus [3])	Time (Rattus norvegicus [4])	Time (Rattus norvegicus [5])	Activity (Rattus norvegicus [6])	Activity (Rattus norvegicus [7])	Activity (Rattus norvegicus [8])	Activity (Rattus norvegicus [9])	IC50 [10]	Ki [10]	Activity [11]
Cc1ccc(C(=O)N2CCOC(C3=CCCN(C)C3)C2)cc1 (stereo unspecified)	Active	8 s	4 s	33 s	13 s	Active	Non-toxic	Non-toxic	Non-toxic	–	–	–
CN1CCC=C(C2CN(C(=O)c3ccccc3[N+](=O)[O-])CCO2)C1 (stereo unspecified)	Active	10 s	5 s	66 s	52 s	Active	Non-toxic	Non-toxic	Non-toxic	618 µM	126 µM	0.65 pmol
CN1CCC=C(C2CN(C(=O)c3ccc(C(C)(C)C)cc3)CCO2)C1 (stereo unspecified)	Active	11 s	6 s	65 s	53 s	Active	Non-toxic	Non-toxic	Non-toxic	–	–	–
CN1CCC=C(C2CN(C(=O)c3ccc(Cl)cc3)CCO2)C1 (stereo unspecified)	Active	7 s	3 s	37 s	17 s	Active	Non-toxic	Non-toxic	Non-toxic	–	–	–
COC(=O)C1=CCCN(C)C1 [ARECOLINE]	–	10 s	5 s	52 s	36 s	Active	–	–	Non-toxic	–	–	–
CN1CCC=C(C2CN(C(=O)c3ccc([N+](=O)[O-])cc3)CCO2)C1 (stereo unspecified)	Active	10 s	5 s	64 s	52 s	Active	Non-toxic	Non-toxic	Non-toxic	–	–	–
CN1CCC=C(C2CN(C(=O)c3cc(Cl)ccc3Cl)CCO2)C1 (stereo unspecified)	Active	11 s	9 s	66 s	53 s	Active	Non-toxic	Non-toxic	Non-toxic	–	–	–
CN1CCC=C(C2CN(C(=O)c3ccccc3)CCO2)C1 (stereo unspecified)	Active	10 s	6 s	53 s	35 s	Active	Non-toxic	Non-toxic	Non-toxic	–	–	–
CN1CCC=C(C2CN(C(=O)c3cccc([N+](=O)[O-])c3)CCO2)C1 (stereo unspecified)	Active	10 s	4 s	64 s	47 s	Active	Non-toxic	Non-toxic	Non-toxic	–	–	–
